Data: US20080119510A1, “Substituted Imidazo [4,5-B] Pyridines As Inhibitors Of Gastric Acid Secretion” (Altana Pharma AG, priority 2004, published 2008)

Legend:
[1] = tested on: pentagastrin-stimulated acid secretion of the perfused rat stomach; assay: Secretion-inhibiting action on the perfused rat stomach (pentagastrin-stimulated acid secretion); assay type: in vivo; conditions: anesthetized CD rat, dose 3.0 μmol/kg i.d.
Description: In Table A which follows, the influence of the compounds of the formula 1 according to the invention on the pentagastrin-stimulated acid secretion of the perfused rat stomach after intraduodenal administration in vivo is shown.
The abdomen of anesthetized rats (CD rat, female, 200-250 g; 1.5 g/kg i.m. urethane) was opened after tracheotomy by a median upper abdominal incision and a PVC catheter was fixed transorally in the esophagus and another via the pylorus such that the ends of the tubes just projected into the gastric lumen. The catheter leading from the pylorus led outward into the right abdominal wall through a side opening.
After thorough rinsing (about 50-100 ml), warm (37° C.) physiological NaCl solution was continuously passed through the stomach (0.5 ml/min, pH 6.8-6.9; Braun-Unita I). The pH (pH meter 632, glass electrode EA 147; φ=5 mm, Metrohm) and, by titration with a freshly prepared 0.01 N NaOH solution to pH 7 (Dosimat 665 Metrohm), the secreted HCl were determined in the effluent in each case collected at an interval of 15 minutes.
The gastric secretion was stimulated by continuous infusion of […] (=1.65 ml/h) of i.v. pentagastrin (left femoral vein) about 30 min after the end of the operation (i.e. after determination of 2 preliminary fractions). The substances to be tested were administered intraduodenally in a 2.5 ml/kg liquid volume 60 min after the start of the continuous pentagastrin infusion. The body temperature of the animals was kept at a constant 37.8-38° C. by infrared irradiation and heat pads (automatic, stepless control by means of a rectal temperature sensor).

Row | melting point [°C] | SMILES | Inhibition of acid secretion (%) [1] [%]
1 | 105 to 109 | CCc1cccc(C)c1CNc1ccnc2c1nc(C)n2C [Example 1, 7-(2-Ethyl-6-methylbenzyl)amino-2,3-dimethyl-3H-imidazo[4,5-b]pyridine] | >30
2 |  | CCc1cccc(C)c1CNc1cc(C(=O)N(C)C)nc2c1nc(C)n2C [Example 2, 5-(Dimethylaminocarbonyl)-7-(2-ethyl-6-methylbenzyl)amino-2,3-dimethyl-3H-imidazo[4,5-b]pyridine] | >30
3 |  | CCc1cccc(C)c1CNc1cc(C(N)=O)nc2c1nc(C)n2C [Example 3, 5-(Aminocarbonyl)-7-(2-ethyl-6-methylbenzyl)amino-2,3-dimethyl-3H-imidazo[4,5-b]pyridine] | >30
4 |  | CCc1cccc(C)c1CNc1cc(C(=O)NCCO)nc2c1nc(C)n2C [Example 5, 7-(2-Ethyl-6-methylbenzyl)amino-5-(2-hydroxyethylaminocarbonyl)-2,3-dimethyl-3H-imidazo[4,5-b]pyridine] | >30
5 |  | CCc1cccc(C)c1CNc1cc(OC)nc2c1nc(C)n2C [Example 6, 7-(2-Ethyl-6-methylbenzyl)amino-5-methoxy-2,3-dimethyl-3H-imidazo[4,5-b]pyridine] | >30
6 | 235 to 238 | CCc1cccc(C)c1CNc1cc(C(=O)O)nc2c1nc(C)n2C [Example 10, 7-(2-ethyl-6-methylbenzyl)amino-2,3-dimethyl-3H-imidazo[4,5-b]pyridine-5-carboxylic Acid] | 
